Experimental findings from US10570184B2, “GLP-1/glucagon receptor co-agonists for medical use” (Novo Nordisk A/S, priority 2014, dated 2020) are described below.

The nature of data set [1]: Assay (III) ThT fibrillation assay for physical stability. The settings on record: 250 μM in 10 mM HEPES buffer, 37° C., shaking 960 rpm. It counts as physicochemical. In outline: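 Glucagon derivative at 250 μM in 10 mM HEPES pH 7.5 with 1 μM ThT was incubated at 37 °C under 960 rpm orbital shaking. Fluorescence (ex 444/em 485 nm) was read every 20 min and fitted for lag time (t0−2τ) and kapp (1/τ). Recovery was soluble peptide after centrifugation/filtration, by RP-HPLC, as percent of initial.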

Another data set deals with T1, human GLP-1 receptor (Homo sapiens, UniProt P43220).
T1 construct: expressed in transfected cells; host or cells: membranes of BHK cells (parent BHKTS13), clone FCW467-12A
T1 sequence (P43220 24-463): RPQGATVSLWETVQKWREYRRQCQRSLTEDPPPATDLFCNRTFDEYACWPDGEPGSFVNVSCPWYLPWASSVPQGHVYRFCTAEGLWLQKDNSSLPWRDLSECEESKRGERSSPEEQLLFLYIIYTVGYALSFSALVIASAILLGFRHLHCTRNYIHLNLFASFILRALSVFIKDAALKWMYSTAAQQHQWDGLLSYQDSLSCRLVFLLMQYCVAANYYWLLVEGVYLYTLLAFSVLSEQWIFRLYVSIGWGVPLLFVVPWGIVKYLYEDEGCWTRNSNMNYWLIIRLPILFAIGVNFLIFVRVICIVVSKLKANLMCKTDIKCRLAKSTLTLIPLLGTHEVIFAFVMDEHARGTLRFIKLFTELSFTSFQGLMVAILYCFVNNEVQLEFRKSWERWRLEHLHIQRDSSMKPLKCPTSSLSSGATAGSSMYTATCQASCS
Description: Assay (I)(a) GLP-1 receptor activation, CRE luciferase reporter gene assay in BHK cells. The data set is classed as cell-based. To be noted: without presence of serum albumin; read-out: GLP-1R EC50 (pM) [Assay (I)(a)]. In outline: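 Stable BHK clone expressing human GLP-1 receptor with CRE-driven firefly luciferase, 5×10EE3 cells/well in medium with 2% ovalbumin and 0.2% Pluronic F-68. Compounds at 1×10EE-13 to 1×10EE-6 M final, 3 h at 37° C.; luminescence read, EC50 (pM) from four-parameter fit.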

Starred links: 1 amine or outer side, 2 acyl side, 3 side chain; linkers in the order of their positions; H or OH if unused. Non-standard residues stand in square brackets, D forms with d. Residues, ends and D or L forms follow the SMILES beside them. Groups on a side chain read outwards from the residue. *: point of attachment. C18 diacid = O=C(O)CCCCCCCCCCCCCCCCC(=O)*; γGlu = O=C(O)[C@H](CCC(=O)[*:2])N[*:1]; Ac4c = NC1(C(=O)O)CCC1; AEEA = NCCOCCOCC(=O)O; Aib = CC(C)(N)C(=O)O

For `CC[C@H](C)[C@H](NC(=O)[C@H](CC(C)C)NC(=O)[C@H](Cc1c[nH]c2ccccc12)NC(=O)[C@H](CCC(N)=O)NC(=O)[C@@H](NC(=O)[C@H](Cc1ccccc1)NC(=O)[C@H](CC(=O)O)NC(=O)[C@H](CCCNC(=N)N)NC(=O)[C@H](C)NC(=O)[C@H](CCCNC(=N)N)NC(=O)[C@H](CCCNC(=N)N)NC(=O)[C@H](C)NC(=O)[C@H](CC(=O)O)NC(=O)[C@H](CC(C)C)NC(=O)[C@H](Cc1ccc(O)cc1)NC(=O)[C@H](CCCCN)NC(=O)[C@H](CO)NC(=O)[C@H](CC(C)C)NC(=O)[C@H](CC(=O)O)NC(=O)[C@H](CO)NC(=O)[C@@H](NC(=O)[C@H](Cc1ccccc1)NC(=O)[C@@H](NC(=O)CNC(=O)[C@H](CCC(N)=O)NC(=O)C(C)(C)NC(=O)[C@@H](N)Cc1c[nH]cn1)[C@@H](C)O)[C@@H](C)O)C(C)C)C(=O)N[C@@H](CO)C(=O)N[C@@H](CCCCNC(=O)CC[C@H](NC(=O)CC[C@H](NC(=O)COCCOCCNC(=O)COCCOCCNC(=O)CC[C@H](NC(=O)CCCCCCCCCCCCCCCCC(=O)O)C(=O)O)C(=O)O)C(=O)O)C(N)=O` [Chem. 27, N^ε29-[(4S)-4-carboxy-4-[[(4S)-4-carboxy-4-[[2-[2-[2-[[2-[2-[2-[[(4S)-4-carboxy-4-(17-carboxyheptadecanoylamino)butanoyl]amino]ethoxy]ethoxy]acetyl]amino]ethoxy]ethoxy]acetyl]amino]butanoyl]amino]butanoyl]-[Aib2,Leu10,Ala16,Arg20,Ile27,Ser28,Lys29]-Glucagon amide] (H-H[Aib]QGTFTSDLSKYLDARRARDFVQWLISK([γGlu-γGlu-AEEA-AEEA-γGlu-C18 diacid])-NH2; N-terminus assumed), the “ThT Assay Lag time (h) [Assay (III), pH 7.5]” value (from here on “ThT Assay Lag time (h)”) in data set [1] amounted to 45.0 h. In addition, the 50% effective concentration (EC50) at human GLP-1 receptor came to 3 pM.
For `CC[C@H](C)[C@H](NC(=O)[C@H](CC(C)C)NC(=O)[C@H](Cc1c[nH]c2ccccc12)NC(=O)[C@H](CCC(N)=O)NC(=O)[C@@H](NC(=O)[C@H](Cc1ccccc1)NC(=O)[C@H](CCC(=O)O)NC(=O)[C@H](CCCNC(=N)N)NC(=O)[C@H](C)NC(=O)[C@H](CCCNC(=N)N)NC(=O)[C@H](CCCNC(=N)N)NC(=O)[C@H](C)NC(=O)[C@H](CC(=O)O)NC(=O)[C@H](CC(C)C)NC(=O)[C@H](Cc1ccc(O)cc1)NC(=O)[C@H](CCCCN)NC(=O)[C@H](CO)NC(=O)[C@H](CC(C)C)NC(=O)[C@H](CC(=O)O)NC(=O)[C@H](CO)NC(=O)[C@@H](NC(=O)[C@H](Cc1ccccc1)NC(=O)[C@@H](NC(=O)CNC(=O)[C@H](CCC(N)=O)NC(=O)C(C)(C)NC(=O)[C@@H](N)Cc1c[nH]cn1)[C@@H](C)O)[C@@H](C)O)C(C)C)C(=O)N[C@@H](CO)C(=O)N[C@@H](CCCCNC(=O)CC[C@H](NC(=O)CC[C@H](NC(=O)COCCOCCNC(=O)COCCOCCNC(=O)CC[C@H](NC(=O)CCCCCCCCCCCCCCCCC(=O)O)C(=O)O)C(=O)O)C(=O)O)C(N)=O` [Chem. 28, N^ε29-[(4S)-4-carboxy-4-[[(4S)-4-carboxy-4-[[2-[2-[2-[[2-[2-[2-[[(4S)-4-carboxy-4-(17-carboxyheptadecanoylamino)butanoyl]amino]ethoxy]ethoxy]acetyl]amino]ethoxy]ethoxy]acetyl]amino]butanoyl]amino]butanoyl]-[Aib2,Leu10,Ala16,Arg20,Glu21,Ile27,Ser28,Lys29]-Glucagon amide] (H-H[Aib]QGTFTSDLSKYLDARRAREFVQWLISK([γGlu-γGlu-AEEA-AEEA-γGlu-C18 diacid])-NH2; N-terminus assumed), in data set [1], the “ThT Assay Lag time (h)” value is listed as 45.0 h. Also, the EC50 on human GLP-1 receptor was 3 pM.
On to `CC[C@H](C)[C@H](NC(=O)[C@H](CC(C)C)NC(=O)[C@H](Cc1c[nH]c2ccccc12)NC(=O)[C@H](C)NC(=O)[C@@H](NC(=O)[C@H](Cc1ccccc1)NC(=O)[C@H](CC(=O)O)NC(=O)[C@H](CCCNC(=N)N)NC(=O)[C@H](C)NC(=O)[C@H](CCCNC(=N)N)NC(=O)[C@H](CCCNC(=N)N)NC(=O)[C@H](C)NC(=O)[C@H](CC(=O)O)NC(=O)[C@H](CC(C)C)NC(=O)[C@H](Cc1ccc(O)cc1)NC(=O)[C@H](CCCCN)NC(=O)[C@H](CO)NC(=O)[C@H](Cc1ccc(O)cc1)NC(=O)[C@H](CC(=O)O)NC(=O)[C@H](CO)NC(=O)[C@@H](NC(=O)[C@H](Cc1ccccc1)NC(=O)[C@@H](NC(=O)CNC(=O)[C@H](CCC(N)=O)NC(=O)C(C)(C)NC(=O)[C@@H](N)Cc1c[nH]cn1)[C@@H](C)O)[C@@H](C)O)C(C)C)C(=O)N[C@@H](CCCCNC(=O)CC[C@H](NC(=O)CC[C@H](NC(=O)COCCOCCNC(=O)COCCOCCNC(=O)CC[C@H](NC(=O)CCCCCCCCCCCCCCCCC(=O)O)C(=O)O)C(=O)O)C(=O)O)C(=O)N[C@H](C(N)=O)[C@@H](C)O` [Chem. 32, N^ε28-[(4S)-4-carboxy-4-[[(4S)-4-carboxy-4-[[2-[2-[2-[[2-[2-[2-[[(4S)-4-carboxy-4-(17-carboxyheptadecanoylamino)butanoyl]amino]ethoxy]ethoxy]acetyl]amino]ethoxy]ethoxy]acetyl]amino]butanoyl]amino]butanoyl]-[Aib2,Ala16,Arg20,Ala24,Ile27,Lys28]-Glucagon amide] (H-H[Aib]QGTFTSDYSKYLDARRARDFVAWLIK([γGlu-γGlu-AEEA-AEEA-γGlu-C18 diacid])T-NH2), for which the “ThT Assay Lag time (h)” value in data set [1] is 45.0 h. The concentration for a half-maximal effect (EC50) on human GLP-1 receptor turned out to be 2 pM.
On to `CC[C@H](C)[C@H](NC(=O)[C@H](CC(C)C)NC(=O)[C@H](Cc1c[nH]c2ccccc12)NC(=O)[C@H](C)NC(=O)[C@@H](NC(=O)[C@H](Cc1ccccc1)NC(=O)[C@H](CC(=O)O)NC(=O)[C@H](CCC(N)=O)NC(=O)[C@H](C)NC(=O)[C@H](CCCNC(=N)N)NC(=O)[C@H](CCCNC(=N)N)NC(=O)[C@H](CO)NC(=O)[C@H](CCC(=O)O)NC(=O)[C@H](CC(C)C)NC(=O)[C@H](Cc1ccc(O)cc1)NC(=O)[C@H](CCCCN)NC(=O)[C@H](CO)NC(=O)[C@H](Cc1ccc(O)cc1)NC(=O)[C@H](CC(=O)O)NC(=O)[C@H](CO)NC(=O)[C@@H](NC(=O)[C@H](Cc1ccccc1)NC(=O)[C@@H](NC(=O)CNC(=O)[C@H](CCC(N)=O)NC(=O)C(C)(C)NC(=O)[C@@H](N)Cc1c[nH]cn1)[C@@H](C)O)[C@@H](C)O)C(C)C)C(=O)N[C@@H](CCCCNC(=O)CC[C@H](NC(=O)CC[C@H](NC(=O)COCCOCCNC(=O)COCCOCCNC(=O)CC[C@H](NC(=O)CCCCCCCCCCCCCCCCC(=O)O)C(=O)O)C(=O)O)C(=O)O)C(=O)N[C@H](C(N)=O)[C@@H](C)O` [Chem. 34, N^ε28-[(4S)-4-carboxy-4-[[(4S)-4-carboxy-4-[[2-[2-[2-[[2-[2-[2-[[(4S)-4-carboxy-4-(17-carboxyheptadecanoylamino)butanoyl]amino]ethoxy]ethoxy]acetyl]amino]ethoxy]ethoxy]acetyl]amino]butanoyl]amino]butanoyl]-[Aib2,Glu15,Ala24,Ile27,Lys28]-Glucagon amide] (H-H[Aib]QGTFTSDYSKYLESRRAQDFVAWLIK([γGlu-γGlu-AEEA-AEEA-γGlu-C18 diacid])T-NH2), for which the “ThT Assay Lag time (h)” value in data set [1] came out at 45.0 h. Moreover, at human GLP-1 receptor, the EC50 was found to be 3 pM.
As for `CC[C@H](C)[C@H](NC(=O)[C@H](CC(C)C)NC(=O)[C@H](Cc1c[nH]c2ccccc12)NC(=O)[C@H](CCC(N)=O)NC(=O)[C@@H](NC(=O)[C@H](Cc1ccccc1)NC(=O)[C@H](CC(=O)O)NC(=O)[C@H](CCCNC(=N)N)NC(=O)[C@H](C)NC(=O)[C@H](CCCNC(=N)N)NC(=O)[C@H](CCCNC(=N)N)NC(=O)[C@H](CO)NC(=O)[C@H](CCC(=O)O)NC(=O)[C@H](CC(C)C)NC(=O)[C@H](Cc1ccc(O)cc1)NC(=O)[C@H](CCCNC(=N)N)NC(=O)[C@H](CO)NC(=O)[C@H](Cc1ccc(O)cc1)NC(=O)[C@H](CC(=O)O)NC(=O)[C@H](CO)NC(=O)[C@@H](NC(=O)[C@H](Cc1ccccc1)NC(=O)[C@@H](NC(=O)CNC(=O)[C@H](CCC(N)=O)NC(=O)C1(NC(=O)[C@@H](N)Cc2c[nH]cn2)CCC1)[C@@H](C)O)[C@@H](C)O)C(C)C)C(=O)N[C@@H](CCCCNC(=O)CC[C@H](NC(=O)COCCOCCNC(=O)CC[C@H](NC(=O)COCCOCCNC(=O)CC[C@H](NC(=O)COCCOCCNC(=O)CC[C@H](NC(=O)CC[C@H](NC(=O)CCCCCCCCCCCCCCCCC(=O)O)C(=O)O)C(=O)O)C(=O)O)C(=O)O)C(=O)O)C(=O)N[C@H](C(N)=O)[C@@H](C)O` [Chem. 36, N^ε28-[(4S)-4-carboxy-4-[[2-[2-[2-[[(4S)-4-carboxy-4-[[2-[2-[2-[[(4S)-4-carboxy-4-[[2-[2-[2-[[(4S)-4-carboxy-4-[[(4S)-4-carboxy-4-(17-carboxyheptadecanoylamino)butanoyl]amino]butanoyl]amino]ethoxy]ethoxy]acetyl]amino]butanoyl]amino]ethoxy]ethoxy]acetyl]amino]butanoyl]amino]ethoxy]ethoxy]acetyl]amino]butanoyl]-[Acb2,Arg12,Glu15,Arg20,Ile27,Lys28]-Glucagon amide] (H-H[Ac4c]QGTFTSDYSRYLESRRARDFVQWLIK([γGlu-AEEA-γGlu-AEEA-γGlu-AEEA-γGlu-γGlu-C18 diacid])T-NH2; N-terminus assumed), in data set [1], the “ThT Assay Lag time (h)” value was determined as 3.7 h. In addition, on human GLP-1 receptor, the EC50 turned out to be 4 pM.
